The structures appear in SMILES notation. A value given as a limit tells only on which side of the number the result lay.

As a reminder, the EC50 is the concentration at which the effect is half-maximal. A lower EC50 goes with higher potency in that assay.

T1 sequence (P14902 whole entry): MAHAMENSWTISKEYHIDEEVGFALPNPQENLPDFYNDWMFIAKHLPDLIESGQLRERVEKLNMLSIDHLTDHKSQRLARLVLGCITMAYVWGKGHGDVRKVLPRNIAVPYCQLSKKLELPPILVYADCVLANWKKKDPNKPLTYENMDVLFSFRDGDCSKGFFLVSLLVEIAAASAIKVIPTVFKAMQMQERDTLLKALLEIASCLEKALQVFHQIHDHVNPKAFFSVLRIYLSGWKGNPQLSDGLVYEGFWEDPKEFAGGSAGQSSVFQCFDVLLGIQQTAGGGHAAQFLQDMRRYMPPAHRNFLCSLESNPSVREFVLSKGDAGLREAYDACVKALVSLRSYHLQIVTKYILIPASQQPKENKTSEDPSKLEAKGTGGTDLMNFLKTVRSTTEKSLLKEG

The experiment addresses T1, IDO1 (Homo sapiens, UniProt P14902).
T1 construct: HeLa cells were treated with a test compound in the presence of IFNγ, which induces IDO1 expression; host or cells: H1-HeLa cells, IDO1 induced with IFNγ
Description: Cell-based (HeLa) assay for measurement of IDO1 inhibition (kynurenine levels in supernatant after IFNγ induction). The following applies: HeLa cells, IFNγ-induced IDO1, kynurenine in supernatant after 48 hour incubation; geometric mean of a minimum of four determinations. A digest of the protocol:
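HeLa cells, 1,250 per well, treated with compound (0.5% DMSO final) plus IFNγ to induce IDO1, for 48 h. Supernatant kynurenine measured by TCA hydrolysis at 60 °C, then p-dimethylaminobenzaldehyde, absorbance 480 nm. EC50 from a four-parameter fit normalized to −/+IFNγ controls; geometric mean of at least four runs.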
Compound `O/N=C(\Nc1ccc(F)c(Cl)c1)c1ccnc2nc(CCNC3CC3)[nH]c12` [Example 207, N-(3-chloro-4-fluorophenyl)-2-(2-(cyclopropylamino)ethyl)-N′-hydroxy-3H-imidazo[4,5-b]pyridine-7-carboximidamide] yielded a concentration for a half-maximal effect (EC50) of 1260 nM.
The result for `NC1=NCCN1CCc1nc2nccc(/C(=N/O)Nc3ccc(F)c(Cl)c3)c2[nH]1` [Example 209, 2-(2-(2-amino-4,5-dihydro-1H-imidazol-1-yl)ethyl)-N-(3-chloro-4-fluorophenyl)-N′-hydroxy-1H-imidazo[4,5-b]pyridine-7-carboximidamide] reads 5000 nM; that for `CS(=O)(=O)NCCc1nc2c(F)c(F)cc(/C(=N/O)Nc3ccc(F)c(Cl)c3)c2[nH]1` [Example 210, N-(3-chloro-4-fluorophenyl)-4,5-difluoro-N′-hydroxy-2-(2-(methylsulfonamido)ethyl)-1H-benzo[d]imidazole-7-carboximidamide], > 10000 nM.
The result for `NCCc1nc2c(F)c(F)cc(/C(=N/O)Nc3ccc(F)c(Cl)c3)c2[nH]1` [Example 211, 2-(2-aminoethyl)-N-(3-chloro-4-fluorophenyl)-4,5-difluoro-N′-hydroxy-1H-benzo[d]imidazole-7-carboximidamide] reads > 10000 nM; that for `COCCNc1nc2nccc(C(=NO)Nc3ccc(F)c(Cl)c3)c2[nH]1` [Example 212, N-(3-chloro-4-fluorophenyl)-N′-hydroxy-2-((2-methoxyethyl)amino)-1H-imidazo[4,5-b]pyridine-7-carboximidamide], 876 nM.
The result for `CC(C)(C)OC(=O)NCCc1nc2c(F)c(F)cc(/C(=N/O)Nc3ccc(F)c(Cl)c3)c2[nH]1` [Example 213, tert-butyl (2-(7-(N-(3-chloro-4-fluorophenyl)-N′-hydroxycarbamimidoyl)-4,5-difluoro-1H-benzo[d]imidazol-2-yl)ethyl)carbamate] reads 3620 nM; that for `ON=C(Nc1ccc(F)c(Cl)c1)c1ccnc2nc(NCCN3CCC(F)(F)CC3)[nH]c12` [Example 214, N-(3-chloro-4-fluorophenyl)-2-((2-(4,4-difluoropiperidin-1-yl)ethyl)amino)-N′-hydroxy-1H-imidazo[4,5-b]pyridine-7-carboximidamide], 1910 nM; that for `CN(C)CCNc1nc2nccc(C(=NO)Nc3ccc(F)c(Cl)c3)c2[nH]1` [Example 215, N-(3-chloro-4-fluorophenyl)-2-((2-(dimethylamino)ethyl)amino)-N′-hydroxy-1H-imidazo[4,5-b]pyridine-7-carboximidamide], 1200 nM.
As for `CNCCNc1nc2nccc(/C(=N/O)Nc3ccc(F)c(Cl)c3)c2[nH]1` [Example 216, N-(3-chloro-4-fluorophenyl)-N′-hydroxy-2-((2-(methylamino)ethyl)amino)-1H-imidazo[4,5-b]pyridine-7-carboximidamide], the EC50 worked out at 2010 nM.
`CN1CCCCC(Nc2nc3nccc(/C(=N/O)Nc4ccc(F)c(Cl)c4)c3[nH]2)C1` (stereo not shown) [Example 217, N-(3-chloro-4-fluorophenyl)-N′-hydroxy-2-((1-methylazepan-3-yl)amino)-1H-imidazo[4,5-b]pyridine-7-carboximidamide] displayed an EC50 of 2870 nM. This EC50 and that of the compound before are within 1.5-fold of each other.
The result for `O=S1(=O)CCN(CCNc2nc3nccc(/C(=N/O)Nc4ccc(F)c(Cl)c4)c3[nH]2)CC1` [Example 218, N-(3-chloro-4-fluorophenyl)-2-((2-(1,1-dioxidothiomorpholino)ethyl)amino)-N′-hydroxy-1H-imidazo[4,5-b]pyridine-7-carboximidamide] reads > 10000 nM; that for `COCCN(C)CCNc1nc2nccc(/C(=N/O)Nc3ccc(F)c(Cl)c3)c2[nH]1` [Example 219, N-(3-chloro-4-fluorophenyl)-N′-hydroxy-2-((2-((2-methoxyethyl)(methyl)amino)ethyl)amino)-1H-imidazo[4,5-b]pyridine-7-carboximidamide], 3830 nM; that for `CN(CCNc1nc2nccc(/C(=N/O)Nc3ccc(F)c(Cl)c3)c2[nH]1)CC(F)F` [Example 220, N-(3-chloro-4-fluorophenyl)-2-((2-((2,2-difluoroethyl)(methyl)amino)ethyl)amino)-N′-hydroxy-1H-imidazo[4,5-b]pyridine-7-carboximidamide], 2380 nM.
The compound `O/N=C(\Nc1ccc(F)c(Cl)c1)c1ccnc2nc(NCCCN3CCOCC3)[nH]c12` [Example 221, N-(3-chloro-4-fluorophenyl)-N′-hydroxy-2-((3-morpholinopropyl)amino)-1H-imidazo[4,5-b]pyridine-7-carboximidamide] gave an EC50 of 899 nM. This EC50 is about 2.6-fold lower than that of the compound before.
The result for `O/N=C(\Nc1ccc(F)c(Cl)c1)c1ccnc2nc(NCCN3CCCCC3)[nH]c12` [Example 222, N-(3-chloro-4-fluorophenyl)-N′-hydroxy-2-((2-(piperidin-1-yl)ethyl)amino)-1H-imidazo[4,5-b]pyridine-7-carboximidamide] reads 1520 nM; that for `O/N=C(\Nc1ccc(F)c(Cl)c1)c1ccnc2nc(NCCC3CCCCC3)[nH]c12` [Example 223, N-(3-chloro-4-fluorophenyl)-2-((2-cyclohexylethyl)amino)-N′-hydroxy-1H-imidazo[4,5-b]pyridine-7-carboximidamide], 2180 nM; that for `O/N=C(\Nc1ccc(F)c(Cl)c1)c1ccnc2nc(NCCC3CCOCC3)[nH]c12` [Example 224, N-(3-chloro-4-fluorophenyl)-N′-hydroxy-2-((2-(tetrahydro-2H-pyran-4-yl)ethyl)amino)-1H-imidazo[4,5-b]pyridine-7-carboximidamide], 3740 nM.
The result for `O/N=C(\Nc1ccc(F)c(Cl)c1)c1ccnc2nc(NCC(F)F)[nH]c12` [Example 225, N-(3-chloro-4-fluorophenyl)-2-((2,2-difluoroethyl)amino)-N′-hydroxy-1H-imidazo[4,5-b]pyridine-7-carboximidamide] reads 2190 nM; that for `O/N=C(\Nc1ccc(F)c(Cl)c1)c1ccnc2nc(NC3COC3)[nH]c12` [Example 226, N-(3-chloro-4-fluorophenyl)-N′-hydroxy-2-(oxetan-3-ylamino)-1H-imidazo[4,5-b]pyridine-7-carboximidamide], > 10000 nM.
For `O/N=C(\Nc1ccc(F)c(Cl)c1)c1ccnc2nc(NC3CCOC3)[nH]c12` (stereo not shown) [Example 227, N-(3-chloro-4-fluorophenyl)-N′-hydroxy-2-((tetrahydrofuran-3-yl)amino)-1H-imidazo[4,5-b]pyridine-7-carboximidamide], it took 2190 nM to reach a half-maximal effect (EC50).
The result for `O/N=C(\Nc1ccc(F)c(Cl)c1)c1ccnc2nc(NC3CCOCC3)[nH]c12` [Example 228, N-(3-chloro-4-fluorophenyl)-N′-hydroxy-2-((tetrahydro-2H-pyran-4-yl)amino)-1H-imidazo[4,5-b]pyridine-7-carboximidamide] reads 2140 nM.
The result for `NC(=O)CCNc1nc2c(F)c(F)cc(/C(=N/O)Nc3ccc(F)c(Cl)c3)c2[nH]1` [Example 229] reads > 10000 nM.
As to `O/N=C(\Nc1ccc(F)c(Cl)c1)c1ccnc2nc(NCCNCC(F)F)[nH]c12` [Example 230, N-(3-chloro-4-fluorophenyl)-2-((2-((2,2-difluoroethyl)amino)ethyl)amino)-N′-hydroxy-1H-imidazo[4,5-b]pyridine-7-carboximidamide], the concentration for a half-maximal effect (EC50) amounted to 3840 nM.
The result for `CN(CCNc1nc2nccc(/C(=N/O)Nc3ccc(F)c(Cl)c3)c2[nH]1)C1CC1` [Example 231, N-(3-chloro-4-fluorophenyl)-2-((2-(cyclopropyl(methyl)amino)ethyl)amino)-N′-hydroxy-1H-imidazo[4,5-b]pyridine-7-carboximidamide] reads 291 nM; that for `COCCN(CCNc1nc2nccc(/C(=N/O)Nc3ccc(F)c(Cl)c3)c2[nH]1)C1CC1` [Example 232, N-(3-chloro-4-fluorophenyl)-2-((2-(cyclopropyl(2-methoxyethyl)amino)ethyl)amino)-N′-hydroxy-1H-imidazo[4,5-b]pyridine-7-carboximidamide], 460 nM; that for `O/N=C(\Nc1ccc(F)c(Cl)c1)c1ccnc2nc(NCCN3CCC3)[nH]c12` [Example 233, 2-((2-(azetidin-1-yl)ethyl)amino)-N-(3-chloro-4-fluorophenyl)-N′-hydroxy-1H-imidazo[4,5-b]pyridine-7-carboximidamide], 1120 nM.
`COCCCNc1nc2nccc(/C(=N/O)Nc3ccc(F)c(Cl)c3)c2[nH]1` [Example 234, N-(3-chloro-4-fluorophenyl)-N′-hydroxy-2-((3-methoxypropyl)amino)-1H-imidazo[4,5-b]pyridine-7-carboximidamide] returned an EC50 of 698 nM.
Compound `O=C1CCCN1CCNc1nc2nccc(/C(=N/O)Nc3ccc(F)c(Cl)c3)c2[nH]1` [Example 235, N-(3-chloro-4-fluorophenyl)-N′-hydroxy-2-((2-(2-oxopyrrolidin-1-yl)ethyl)amino)-1H-imidazo[4,5-b]pyridine-7-carboximidamide] returned an EC50 of 4820 nM.
With `O=S(=O)(CCNc1nc2nccc(/C(=N/O)Nc3ccc(F)c(Cl)c3)c2[nH]1)N1CCOCC1` [Example 236, N-(3-chloro-4-fluorophenyl)-N′-hydroxy-2-((2-(morpholinosulfonyl)ethyl)amino)-1H-imidazo[4,5-b]pyridine-7-carboximidamide], a half-maximal effect (EC50) was put at 4770 nM.
In the case of `O/N=C(\Nc1ccc(F)c(Cl)c1)c1ccnc2nc(NCCN3CCCC(F)C3)[nH]c12` (stereo not shown) [Example 237, N-(3-chloro-4-fluorophenyl)-2-((2-(3-fluoropiperidin-1-yl)ethyl)amino)-N′-hydroxy-1H-imidazo[4,5-b]pyridine-7-carboximidamide], it took 442 nM to reach a half-maximal effect (EC50).
The result for `O/N=C(\Nc1ccc(F)c(Br)c1)c1ccnc2nc(NCCN3CCOCC3)[nH]c12` [Example 238, N-(3-bromo-4-fluorophenyl)-N′-hydroxy-2-((2-morpholinoethyl)amino)-1H-imidazo[4,5-b]pyridine-7-carboximidamide] reads 853 nM.

(Values after US9951065B2 (Gilead Sciences, Inc., priority 2015, dated 2018).)
